# In patent US9133181B2, “Substituted 6-(4-hydroxy-phenyl)-1H-pyrazolo[3,4-b]pyridine derivatives as kinase inhibitors” (SANOFI, priority 2012, dated 2015):
# Molecular target: T1, human full-length recombinant PKC βII (Homo sapiens, UniProt P05771)
# T1 construct: Active human full-length recombinant PKC βII; purchased Invitrogen GmbH, Darmstadt, Germany
# Test: Determination of PKC βII inhibition (Caliper mobility shift kinase assay)
# Type: biochemical
# Details: final compound concentration 1.14 μM (±0.15 μM); 60 min incubation at 32° C.
# Protocol: Determination of PKC βII Inhibition
# PKC βII inhibition was determined according to the following protocol:
# Active human full-length recombinant PKC βII and the peptide substrate, Fluorescein-RFARKGSLRQKNV, were purchased from Invitrogen GmbH, Darmstadt, Germany. Adenosine-5′-triphosphate (ATP), bovine serum albumine (BSA), dimethylsulphoxide (DMSO), 4-(2-hydroxyethyl)piperazine-1-ethanesulfonic acid (Hepes), Triton X-100, 1,2-Dioleoyl-sn-glycerol (DAG), L-α-Phosphatidyl-L-serine (PS), calcium chloride (CaCl2), and Pluronic F-68 were purchased from Sigma-Aldrich, Munich, Germany. Magnesium chloride, 1 M sodium hydroxide solution, 1M hydrochloric acid solution and EDTA were obtained from Merck Biosciences, Darmstadt, Germany.
# Test compounds were diluted to three times the test concentration in buffer 1 (30 mM Hepes-NaOH, pH 7.4, 0.01% Pluronic F-68 and 3% (v/v) DMSO). The […] enzyme was diluted to a concentration of 30 ng/ml in buffer 2 (30 mM Hepes-NaOH, pH 7.4, 15 mM MgCl2, 150 μM CaCl2, 150 μg/ml PS, 60 μg/ml DAG, and 0.045% (w/v) Triton X-100). The peptide substrate and ATP were diluted to concentrations of 3 μM and 120 μM, respectively, in buffer 2. Two μl of the compound solution were mixed with 2 μl of the diluted enzyme in a 384-well small volume microtiter plate (Greiner, Bio-One, Frickenhausen, Germany), and the kinase reaction was initiated by addition of 2 μl of the solution containing peptide substrate and ATP. After 60 min incubation at 32° C., the reaction was stopped by addition of 20 μl of a solution containing 130 mM Hepes-NaOH, pH 7.4, 0.0195% (v/v) Brij-35, 6.5 mM EDTA, 0.13% chip coating reagent 3 (Caliper Lifescience Inc, Hopkinton, Mass.) and 6.5% (v/v) DMSO. Phosphorylation of the substrate peptide was then detected on a Caliper 3000 instrument essentially as described by Pommereau et al (J. Biomol. Screening 2004, 9(5), 409-416). Separation conditions were as follows: Pressure −0.8 psi, upstream voltage −3000 V, downstream voltage −800 V. Positive controls (buffer 1 instead of compound) and negative controls (buffer 1 instead of compound and buffer 2 instead of kinase solution) were run in parallel on each plate. Fractional turnover (R) was determined as the height of the peak of the phosphorylated peptide product divided by the sum of the unphosphorylated substrate and phosphorylated product peak heights. Percent-inhibition values for the test compounds were determined using the formula % Inhibition=100*(1−(Rcompound−Rnegative control)/(Rpositive control−Rnegative control).
# In the following table % inhibition values observed with example compounds at a final concentration of 1.14 μM (±0.15 μM) are listed: […]
# T1 sequence (P05771 1-673 isoform P05771-2): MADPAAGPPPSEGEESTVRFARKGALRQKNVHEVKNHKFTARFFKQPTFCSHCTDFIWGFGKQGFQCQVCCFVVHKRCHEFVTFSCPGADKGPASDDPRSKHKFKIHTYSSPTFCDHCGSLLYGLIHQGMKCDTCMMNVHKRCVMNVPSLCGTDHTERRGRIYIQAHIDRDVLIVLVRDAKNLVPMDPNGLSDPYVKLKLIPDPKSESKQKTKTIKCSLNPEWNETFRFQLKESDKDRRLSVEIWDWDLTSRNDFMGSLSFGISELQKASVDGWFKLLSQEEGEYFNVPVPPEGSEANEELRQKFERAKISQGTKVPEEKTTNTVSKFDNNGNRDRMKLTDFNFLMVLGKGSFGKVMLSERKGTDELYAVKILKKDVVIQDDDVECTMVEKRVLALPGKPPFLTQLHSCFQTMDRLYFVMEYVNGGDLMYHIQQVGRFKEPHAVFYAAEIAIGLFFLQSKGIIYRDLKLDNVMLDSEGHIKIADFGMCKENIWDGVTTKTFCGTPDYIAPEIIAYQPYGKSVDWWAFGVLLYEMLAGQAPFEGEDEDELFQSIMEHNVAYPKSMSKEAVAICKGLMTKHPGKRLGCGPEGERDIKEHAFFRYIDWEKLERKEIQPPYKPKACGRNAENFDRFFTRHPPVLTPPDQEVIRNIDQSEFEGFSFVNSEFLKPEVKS
Compound,% Inhibition [%],inhibition at 1.14 µM [%]
"Cc1n[nH]c2nc(-c3ccc(O)cc3F)cc(CN3C[C@@H](c4ccccc4)NC[C@@H]3C)c12 (relative stereo) [Example 29, 3-Fluoro-4-[3-methyl-4-(trans-2-methyl-5-phenyl-piperazin-1-ylmethyl)-1H-pyrazolo[3,4-b]pyridin-6-yl]-phenol]",90,
"Cc1n[nH]c2nc(-c3ccc(O)cc3)cc(CN3C[C@@H](C)NC[C@@H]3c3ccccc3)c12 (relative stereo) [Example 43, 4-[3-Methyl-4-(trans-5-methyl-2-phenyl-piperazin-1-ylmethyl)-1H-pyrazolo[3,4-b]pyridin-6-yl]-phenol]",58,
"Cc1n[nH]c2nc(-c3ccc(O)cc3F)cc(CN3CCNCC3c3ccccc3)c12 (centres unmarked) [Example 1, 3-Fluoro-4-[3-methyl-4-(2-phenyl-piperazin-1-ylmethyl)-1H-pyrazolo[3,4-b]pyridin-6-yl]-phenol]",,95
"Cc1n[nH]c2nc(-c3ccc(O)cc3F)cc(CN3CCNCC3c3ccc(C(C)C)cc3)c12 (centres unmarked) [Example 2, 3-Fluoro-4-{4-[2-(4-isopropyl-phenyl)-piperazin-1-ylmethyl]-3-methyl-1H-pyrazolo[3,4-b]pyridin-6-yl}-phenol]",,65
Cc1n[nH]c2nc(-c3ccc(O)cc3F)cc(CN3CCNCC3c3ccc(C(F)(F)F)cc3)c12 (centres unmarked) [Example 3],,68
"Cc1n[nH]c2nc(-c3ccc(O)cc3F)cc(CN3CCNCC3c3ccc(F)cc3)c12 (centres unmarked) [Example 4, 3-Fluoro-4-{4-[2-(4-fluoro-phenyl)-piperazin-1-ylmethyl]-3-methyl-1H-pyrazolo[3,4-b]pyridin-6-yl}-phenol]",,94
"Cc1n[nH]c2nc(-c3ccc(O)cc3F)cc(CN3CCNCC3C(F)(F)F)c12 (centres unmarked) [Example 5, 3-Fluoro-4-[3-methyl-4-(2-trifluoromethyl-piperazin-1-ylmethyl)-1H-pyrazolo[3,4-b]pyridin-6-yl]-phenol]",,109
"Cc1n[nH]c2nc(-c3ccc(O)cc3F)cc(CN3CCNCC3c3cccc(F)c3)c12 (centres unmarked) [Example 6, 3-Fluoro-4-{4-[2-(3-fluoro-phenyl)-piperazin-1-ylmethyl]-3-methyl-1H-pyrazolo[3,4-b]pyridin-6-yl}-phenol]",,91
"Cc1n[nH]c2nc(-c3ccc(O)cc3F)cc(CN3CCNCC34CCCC4)c12 [Example 7, 4-[4-(6,9-Diaza-spiro[4.5]dec-6-ylmethyl)-3-methyl-1H-pyrazolo[3,4-b]pyridin-6-yl]-3-fluoro-phenol]",,103
"Cc1n[nH]c2nc(-c3ccc(O)cc3F)cc(CN3CCNCC3c3cccc(C(F)(F)F)c3)c12 (centres unmarked) [Example 8, 3-Fluoro-4-{3-methyl-4-[2-(3-trifluoromethyl-phenyl)-piperazin-1-ylmethyl]-1H-pyrazolo[3,4-b]pyridin-6-yl}-phenol]",,92
"Cc1n[nH]c2nc(-c3ccc(O)cc3F)cc(CN3CCNCC3c3cc(F)cc(F)c3)c12 (centres unmarked) [Example 9, 4-{4-[2-(3,5-Difluoro-phenyl)-piperazin-1-ylmethyl]-3-methyl-1H-pyrazolo[3,4-b]pyridin-6-yl}-3-fluoro-phenol]",,81
"Cc1n[nH]c2nc(-c3ccc(O)cc3F)cc(CN3CCNCC3c3ccccc3F)c12 (centres unmarked) [Example 10, 3-Fluoro-4-{4-[2-(2-fluoro-phenyl)-piperazin-1-ylmethyl]-3-methyl-1H-pyrazolo[3,4-b]pyridin-6-yl}-phenol]",,102
"Cc1n[nH]c2nc(-c3ccc(O)cc3F)cc(CN3CC(C)NCC3(C)C)c12 (centres unmarked) [Example 11, 3-Fluoro-4-[3-methyl-4-(2,2,5-trimethyl-piperazin-1-ylmethyl)-1H-pyrazolo[3,4-b]pyridin-6-yl]-phenol]",,104
"Cc1n[nH]c2nc(-c3ccc(O)cc3F)cc(CN3CCNCC3(C)c3ccccc3)c12 (centres unmarked) [Example 12, 3-Fluoro-4-[3-methyl-4-(2-methyl-2-phenyl-piperazin-1-ylmethyl)-1H-pyrazolo[3,4-b]pyridin-6-yl]-phenol]",,94
"Cc1n[nH]c2nc(-c3ccc(O)cc3F)cc(CN3CCNCC3)c12 [Example 13, 3-Fluoro-4-(3-methyl-4-piperazin-1-ylmethyl-1H-pyrazolo[3,4-b]pyridin-6-yl)-phenol]",,81
"Cc1n[nH]c2nc(-c3ccc(O)cc3F)cc(CN3CCNCC34CC4)c12 [Example 14, 4-[4-(4,7-Diaza-spiro[2.5]oct-4-ylmethyl)-3-methyl-1H-pyrazolo[3,4-b]pyridin-6-yl]-3-fluoro-phenol]",,98
"Cc1n[nH]c2nc(-c3ccc(O)cc3F)cc(CN3CC(C)(C)NCC34CCCC4)c12 [Example 15, 4-[4-(8,8-Dimethyl-6,9-diaza-spiro[4.5]dec-6-ylmethyl)-3-methyl-1H-pyrazolo[3,4-b]pyridin-6-yl]-3-fluoro-phenol]",,96
"Cc1n[nH]c2nc(-c3ccc(O)cc3F)cc(CN3CC(C)NCC34CCCC4)c12 (centres unmarked) [Example 16, 3-Fluoro-4-[3-methyl-4-(8-methyl-6,9-diaza-spiro[4.5]dec-6-ylmethyl)-1H-pyrazolo[3,4-b]pyridin-6-yl]-phenol]",,99
"Cc1n[nH]c2nc(-c3ccc(O)cc3F)cc(CN3CCNCC34CCC4)c12 [Example 17, 4-[4-(5,8-Diaza-spiro[3.5]non-5-ylmethyl)-3-methyl-1H-pyrazolo[3,4-b]pyridin-6-yl]-3-fluoro-phenol]",,98
"CCC1(CC)CNCCN1Cc1cc(-c2ccc(O)cc2F)nc2[nH]nc(C)c12 [Example 18, 4-[4-(2,2-Diethyl-piperazin-1-ylmethyl)-3-methyl-1H-pyrazolo[3,4-b]pyridin-6-yl]-3-fluoro-phenol]",,98
"Cc1n[nH]c2nc(-c3ccc(O)cc3F)cc(CN3CC(C)NCC3C(F)(F)F)c12 (centres unmarked) [Example 19, 3-Fluoro-4-[3-methyl-4-(5-methyl-2-trifluoromethyl-piperazin-1-ylmethyl)-1H-pyrazolo[3,4-b]pyridin-6-yl]-phenol]",,99
"Cc1n[nH]c2nc(-c3ccc(O)cc3F)cc(CN3CC(C(C)C)NCC3(C)C)c12 (centres unmarked) [Example 20, 3-Fluoro-4-[4-(5-isopropyl-2,2-dimethyl-piperazin-1-ylmethyl)-3-methyl-1H-pyrazolo[3,4-b]pyridin-6-yl]-phenol]",,98
"CCC1(C)CN(Cc2cc(-c3ccc(O)cc3F)nc3[nH]nc(C)c23)C(C)(C)CN1 (centres unmarked) [Example 21, 4-[4-(5-Ethyl-2,2,5-trimethyl-piperazin-1-ylmethyl)-3-methyl-1H-pyrazolo[3,4-b]pyridin-6-yl]-3-fluoro-phenol]",,93
"CCC1(CC)CN(Cc2cc(-c3ccc(O)cc3F)nc3[nH]nc(C)c23)C(C)(C)CN1 [Example 22, 4-[4-(5,5-Diethyl-2,2-dimethyl-piperazin-1-ylmethyl)-3-methyl-1H-pyrazolo[3,4-b]pyridin-6-yl]-3-fluoro-phenol]",,89
"Cc1n[nH]c2nc(-c3ccc(O)cc3F)cc(CN3CC(C)(C4CC4)NCC3(C)C)c12 (centres unmarked) [Example 23, 4-[4-(5-Cyclopropyl-2,2,5-trimethyl-piperazin-1-ylmethyl)-3-methyl-1H-pyrazolo[3,4-b]pyridin-6-yl]-3-fluoro-phenol]",,99
"Cc1n[nH]c2nc(-c3ccc(O)cc3F)cc(CN3CCCC(C)(N)C3)c12 (centres unmarked) [Example 24, 4-[4-(3-Amino-3-methyl-piperidin-1-ylmethyl)-3-methyl-1H-pyrazolo[3,4-b]pyridin-6-yl]-3-fluoro-phenol]",,94
